One may read the inhibition as the drop in the measured response relative to a control, in per cent. Low readings indicate a weak effect, high ones a strong effect.

The subject of one assay is MDA-MB-231. Description: Cytotoxicity against human MDA-MB-231 cells at 10 uM assessed as cell growth relative to control. The class given is functional. The conditions noted are these: read-out: Activity.
In a further assay the test system is COLO 205. Description: Cytotoxicity against human COLO205 cells at 10 uM assessed as cell growth relative to control. Type of assay: functional. The conditions noted are these: read-out: Activity.
In a further assay the test system is TK-10. The assay can be described thus: Cytotoxicity against human TK10 cells at 10 uM assessed as cell growth relative to control. Type of assay: functional. Conditions: read-out: Activity.
The subject of another assay is SF-268. Description: Cytotoxicity against human SF268 cells at 10 uM assessed as cell growth relative to control. Type of assay: functional. The conditions noted are these: read-out: Activity.
The subject of another assay is SK-MEL-28. Description: Cytotoxicity against human SK-MEL-28 cells at 10 uM assessed as cell growth relative to control. Type of assay: functional. Conditions: read-out: Activity.
The next assay concerns K562. Description: Cytotoxicity against human K562 cells at 10 uM assessed as cell growth relative to control. The class given is functional. The conditions noted are these: read-out: Activity.
The test system of the next assay is NCI-H226. The assay can be described thus: Cytotoxicity against human NCI-H226 cells at 10 uM assessed as cell growth relative to control. Conditions: read-out: Activity. The class given is functional.
The next assay has as its system MCF7. The assay can be described thus: Cytotoxicity against human MCF7 cells at 10 uM assessed as cell growth relative to control. Type of assay: functional. The conditions noted are these: read-out: Activity.
A further assay has as its system MOLT-4. The assay can be described thus: Cytotoxicity against human MOLT4 cells at 10 uM assessed as cell growth relative to control. The class given is functional. Conditions: read-out: Activity.
The subject of the next assay is UO-31. The assay can be described thus: Cytotoxicity against human UO31 cells at 10 uM assessed as cell growth relative to control. The class given is functional. Conditions: read-out: Activity.
The test system of another assay is HOP-62. The assay can be described thus: Cytotoxicity against human HOP62 cells at 10 uM assessed as cell growth relative to control. The class given is functional. The conditions noted are these: read-out: Activity.
The subject of another assay is SW-620. The assay can be described thus: Cytotoxicity against human SW620 cells at 10 uM assessed as cell growth relative to control. Type of assay: functional. Conditions: read-out: Activity.
A further assay deals with DU-145. Description: Cytotoxicity against human DU145 cells at 10 uM assessed as cell growth relative to control. Type of assay: functional. Conditions: read-out: Activity.
Assay [1] concerns the target Dual specificity mitogen-activated protein kinase kinase; MEK1/2 (Homo sapiens) (UniProt P36507+Q02750). The conditions noted are these: HEK293, at 10 µM.
Description: Inhibition of EGF-induced MEK1/2 activity in HEK293 cells assessed as phosphorylated ERK1/2 level at 10 uM after 1 hr by Western blotting relative to control
In another assay the test system is SK-MEL-2. The assay can be described thus: Cytotoxicity against human SK-MEL-2 cells at 10 uM assessed as cell growth relative to control. Type of assay: functional. The conditions noted are these: read-out: Activity.
A further assay deals with HCT-15. Description: Cytotoxicity against human HCT15 cells at 10 uM assessed as cell growth relative to control. Type of assay: functional. The conditions noted are these: read-out: Activity.
The next assay concerns PC-3. Description: Cytotoxicity against human PC3 cells at 10 uM assessed as cell growth relative to control. Type of assay: functional. The conditions noted are these: read-out: Activity.

Molecules are shown by their SMILES.

Sequence of Dual specificity mitogen-activated protein kinase kinase; MEK1/2 (Homo sapiens) (P36507 whole entry, looked up): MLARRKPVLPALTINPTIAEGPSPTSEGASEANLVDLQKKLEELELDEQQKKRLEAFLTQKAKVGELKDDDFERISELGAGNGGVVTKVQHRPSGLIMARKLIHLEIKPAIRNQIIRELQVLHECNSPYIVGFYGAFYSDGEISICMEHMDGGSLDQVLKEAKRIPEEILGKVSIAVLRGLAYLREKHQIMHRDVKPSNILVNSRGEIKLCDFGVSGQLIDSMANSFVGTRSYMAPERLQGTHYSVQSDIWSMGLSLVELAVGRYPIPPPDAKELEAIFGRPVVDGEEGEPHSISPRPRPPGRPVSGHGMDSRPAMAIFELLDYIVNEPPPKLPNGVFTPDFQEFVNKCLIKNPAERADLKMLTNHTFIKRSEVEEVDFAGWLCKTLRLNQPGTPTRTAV
Sequence of Dual specificity mitogen-activated protein kinase kinase; MEK1/2 (Homo sapiens) (Q02750 whole entry, looked up): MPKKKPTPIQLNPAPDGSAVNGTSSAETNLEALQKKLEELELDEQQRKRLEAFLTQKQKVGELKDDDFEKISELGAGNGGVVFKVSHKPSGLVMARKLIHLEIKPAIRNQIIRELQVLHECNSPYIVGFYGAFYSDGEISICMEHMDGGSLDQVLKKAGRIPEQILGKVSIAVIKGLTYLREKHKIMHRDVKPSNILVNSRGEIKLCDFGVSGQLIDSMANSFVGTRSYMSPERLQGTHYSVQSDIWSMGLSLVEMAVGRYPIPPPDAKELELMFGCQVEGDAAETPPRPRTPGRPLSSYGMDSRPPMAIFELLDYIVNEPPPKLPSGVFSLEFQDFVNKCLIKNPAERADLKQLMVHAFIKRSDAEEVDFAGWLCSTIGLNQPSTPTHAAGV

Take `COc1cc(NCc2ccccc2)c2ncn(C(C)C)c2c1`: the growth at 10 µM in the assay with MDA-MB-231 turned out to be 111%; with COLO 205 it was 118%; with TK-10, 136%; with SF-268, 125%; with SK-MEL-28, 125%; in the assay with K562 it was 64.2%. The growth at 10 µM with NCI-H226 came to 97.1%; in the assay with MCF7 it was 5.8%; with MOLT-4, 78.7%; in the assay with UO-31, 83.2%; in the assay on HOP-62, 101%; with SW-620, 146%. For the same compound, the growth at 10 µM in the assay on DU-145 turned out to be 136%; in the assay with SK-MEL-2, 91.6%; in the assay with HCT-15, 97.9%. The compound also showed an inhibition in assay [1] of 54%.

In the case of `COCCCOc1cc(NCc2ccccc2)c2ncn(C(C)C)c2c1`, the growth at 10 µM with MDA-MB-231 is 102%; in the assay on COLO 205, 100%; in the assay with TK-10, 109%; with SF-268 it was 96.7%; with SK-MEL-28, 115%; in the assay with K562, 90.9%. The growth at 10 µM was determined as 91.6% in the assay on NCI-H226; 93.2% in the assay on MCF7; 88.2% with MOLT-4; 79.9% in the assay with UO-31; 85.7% with HOP-62; 96.1% in the assay on PC-3. Moreover, the growth at 10 µM is 101% in the assay on SW-620, 99.2% in the assay on DU-145, 92.7% with SK-MEL-2 and 110% in the assay with HCT-15.
